The results in this text go back to ChEMBL document CHEMBL1201862, “PubChem BioAssay data set” (2004).

Common to all, as to experiment: NCI anticancer screen, dose series, 48 h
Experiment [1] concerns LOX IMVI.
The subject of experiment [2] is SK-OV-3.
For experiment [3], the system named is SN12C.
Experiment [4] deals with HCC 2998.
For experiment [5], the system named is SF-268.
The test system of experiment [6] is HOP-92.
Experiment [7] has as its system SW-620.
The test system of experiment [8] is OVCAR-5.
Experiment [9] deals with RXF 393.
In experiment [10] the test system is UO-31.
For experiment [11], the system named is HOP-62.
In experiment [12] the test system is COLO 205.
The subject of experiment [13] is SR.
In experiment [14] the test system is HCT-116.
The test system of experiment [15] is ACHN.
The test system of experiment [16] is KM12.
Experiment [17] relates to SF-539.
The subject of experiment [18] is M14.
The test system of experiment [19] is MOLT-4.
The subject of experiment [20] is TK-10.

Molecules are shown by their SMILES.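 The compound was tested at five concentrations on cells cultured in 96-well plates, with a 48-hour exposure period. At the GI50, growth is halved.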 Activity calls are given as the source filed them. No stated cut-off is given here; in the data, active = GI50 up to about 1.1 µM and inactive = higher.

With `CSC(=N)N1N=C2/C(=C/c3ccccc3)CCC[C@H]2[C@H]1c1ccccc1`, the GI50 in experiment [1] is 4.19 µM (inactive); in experiment [2], 3.68 µM (inactive); in experiment [3] it was 3.92 µM (inactive); in experiment [4] it was 3.27 µM (inactive); in experiment [5], 15.2 µM (inactive); in experiment [6], 4.28 µM (inactive). Further, the GI50 was 3.91 µM (inactive) in experiment [7]; 3.98 µM (inactive) in [8]; 2.86 µM (inactive) in experiment [9]; 3.4 µM (inactive) in experiment [10]; 6.65 µM (inactive) in experiment [11]; 1.55 µM (inactive) in experiment [12]. The GI50 in experiment [13] is 1.85 µM (inactive); in [14] it was 2.83 µM (inactive); in experiment [15], 3.36 µM (inactive); in experiment [16], 9.84 µM (inactive); in experiment [17], 6.58 µM (inactive); in [18], 3.67 µM (inactive). For the same molecule, the GI50 is 2.69 µM (inactive) in experiment [19] and 12.7 µM (inactive) in experiment [20].

As for `O=C1/C(=C/c2ccc(Oc3ccccc3)cc2)N=C(c2ccccc2)N1c1ccc(S(=O)(=O)Nc2nccs2)cc1`, the GI50 was 21.5 µM (inactive) in [1]; 27.8 µM (inactive) in experiment [2]; 39.8 µM (inactive) in experiment [3]; 1.56 µM (inactive) in experiment [4]; 36.8 µM (inactive) in experiment [5]; 6.78 µM (inactive) in experiment [6]. The GI50 in [7] is 13.9 µM (inactive); in experiment [8] it was 40.4 µM (inactive); in [9], 17 µM (inactive); in experiment [10], 21.8 µM (inactive); in [11], 14.9 µM (inactive); in experiment [12], 8.3 µM (inactive). The GI50 is 2.65 µM (inactive) in [13]; 10.7 µM (inactive) in [14]; 37.2 µM (inactive) in experiment [15]; 5.15 µM (inactive) in experiment [16]; 31.5 µM (inactive) in experiment [17]; 15.3 µM (inactive) in [18]. Moreover, the figures for the GI50 in [19] and in experiment [20] were 12.6 µM (inactive) and 26.8 µM (inactive), respectively.

Turning to `Cc1nc2n(c1/C=C1/C(=O)Nc3cccc(Cl)c31)CCS2`, the GI50 was 81.7 µM (inactive) in experiment [1]; 16.7 µM (inactive) in experiment [2]; 25.1 µM (inactive) in experiment [3]; > 100 µM (inactive) in experiment [4]; 19.5 µM (inactive) in experiment [5]; 20.7 µM (inactive) in [6]. Also, the GI50 in [7] was > 100 µM (inactive); in [8], > 100 µM (inactive); in experiment [9] it was 20.7 µM (inactive); in [10] it was 29.8 µM (inactive); in experiment [11], 24 µM (inactive); in [12], > 100 µM (inactive). Besides, the GI50 in [13] is > 100 µM (inactive); in experiment [14] it was 42.2 µM (inactive); in experiment [15] it was 31 µM (inactive); in experiment [16], > 100 µM (inactive); in experiment [17], 19 µM (inactive); in experiment [18], > 100 µM (inactive). Besides, the GI50 in experiment [19] was 35.2 µM (inactive); in experiment [20], 37.7 µM (inactive).

On to `COc1ccc(OC)c(/C=C/NC=O)c1`, for which the GI50 in experiment [1], in experiment [2], in experiment [3], in experiment [4], in experiment [5] and in experiment [6] was > 100 µM (inactive) each time. For the same molecule, the GI50 is > 54.5 µM (inactive) in experiment [7]; > 100 µM (inactive) in experiment [8]; > 100 µM (inactive) in experiment [9]; > 100 µM (inactive) in experiment [10]; > 100 µM (inactive) in experiment [11]; > 71.3 µM (inactive) in [12]. The GI50 in experiment [13] is 22 µM (inactive); in experiment [14], > 100 µM (inactive); in [15], > 100 µM (inactive); in experiment [16], > 100 µM (inactive); in experiment [17], > 100 µM (inactive); in [18], > 100 µM (inactive). Besides, the GI50 in [19] and in experiment [20] was > 100 µM (inactive) throughout.

For the molecule `CC(C)(C)OC(=O)NC(Cc1ccc(OCc2ccccc2)cc1)C(=O)NC(COCc1ccccc1)C(=O)Oc1c(Cl)c(Cl)c(Cl)c(Cl)c1Cl` (stereo not given), the GI50 in experiment [1] is 23.6 µM (inactive); in experiment [2], 17.1 µM (inactive); in experiment [3], 23.3 µM (inactive); in [4] it was 20.1 µM (inactive); in experiment [5] it was 24.4 µM (inactive); in experiment [6], 13.8 µM (inactive). Moreover, the GI50 in experiment [7] was 25.6 µM (inactive); in experiment [8] it was 25.5 µM (inactive); in experiment [9], 24.8 µM (inactive); in [10], 17 µM (inactive); in [11] it was 16.4 µM (inactive); in experiment [12] it was 18.7 µM (inactive). Further, the GI50 in [13] was 44.9 µM (inactive); in experiment [14] it was 16.4 µM (inactive); in experiment [15] it was 24.4 µM (inactive); in experiment [16], 19.3 µM (inactive); in [17], 15.5 µM (inactive); in experiment [18], 20.8 µM (inactive). Further, the GI50 is 37.5 µM (inactive) in [19] and 29.8 µM (inactive) in [20].

In the case of `CC(C)Oc1cccc(N2C(n3ccnc3)=Nc3ccncc3S2(=O)=O)c1`, the GI50 in experiment [1] is 16.2 µM (inactive); in experiment [2] it was 17.5 µM (inactive); in experiment [3], 15.5 µM (inactive); in experiment [4] it was 16.9 µM (inactive); in [5] it was 16.3 µM (inactive); in experiment [6], 12.7 µM (inactive). In addition, the GI50 in [7] was 12.6 µM (inactive); in experiment [8], 13.8 µM (inactive); in experiment [9], 14.7 µM (inactive); in experiment [10], 21.6 µM (inactive); in experiment [11] it was 18.3 µM (inactive); in experiment [12], 10.2 µM (inactive). Further, the GI50 in experiment [13] is 3.78 µM (inactive); in experiment [14] it was 13.6 µM (inactive); in experiment [15], 10 µM (inactive); in experiment [16], 23.2 µM (inactive); in experiment [17], 6.31 µM (inactive); in experiment [18], 13.6 µM (inactive). The figures for the GI50 in experiment [19] and in experiment [20] were 4.3 µM (inactive) and 12.1 µM (inactive), respectively.

With `CCOC(=O)c1cn2c(n1)sc1cc([N+](=O)[O-])ccc12`, the GI50 in experiment [1], in [2], in [3], in experiment [4], in experiment [5] and in experiment [6] was > 100 µM (inactive) in each case. Further, the GI50 is > 100 µM (inactive) in experiment [7]; > 100 µM (inactive) in experiment [8]; > 100 µM (inactive) in experiment [9]; > 100 µM (inactive) in experiment [10]; 37 µM (inactive) in experiment [11]; > 100 µM (inactive) in experiment [12]. The GI50 was > 100 µM (inactive) in experiment [13]; > 100 µM (inactive) in [14]; 92.3 µM (inactive) in experiment [15]; > 100 µM (inactive) in experiment [16]; 62.7 µM (inactive) in experiment [17]; > 100 µM (inactive) in [18]. The GI50 in experiment [19] and in experiment [20] was > 100 µM (inactive) throughout.

With `S=C(Cc1ccc2c(c1)Sc1ccccc1O2)N1CCOCC1`, the GI50 in experiment [1] was 45.4 µM (inactive); in [2] it was 49.9 µM (inactive); in [3], > 100 µM (inactive); in experiment [4], 86.1 µM (inactive); in experiment [5] it was 32.6 µM (inactive); in experiment [6], 30.6 µM (inactive). Also, the GI50 was 43 µM (inactive) in experiment [7]; > 100 µM (inactive) in experiment [8]; 69.8 µM (inactive) in experiment [9]; 26.1 µM (inactive) in [10]; > 100 µM (inactive) in experiment [11]; 36.6 µM (inactive) in experiment [12]. Also, the GI50 is 26.7 µM (inactive) in experiment [13]; 8.32 µM (inactive) in experiment [14]; 38.7 µM (inactive) in experiment [15]; 29 µM (inactive) in experiment [16]; 21.2 µM (inactive) in experiment [17]; 40.6 µM (inactive) in experiment [18]. Further, the GI50 in [19] is 52.1 µM (inactive); in [20] it was > 100 µM (inactive).

Turning to `COc1c2c(nc3ccccc13)-c1cc3c(c(=O)n1C2)COC(=O)C3(O)CC(=O)N1CCOCC1` (stereo not given), the GI50 in experiment [1] is 1.36 µM (inactive); in experiment [2], 9.48 µM (inactive); in experiment [3], 1.59 µM (inactive); in experiment [4], 18.2 µM (inactive); in [5], 0.532 µM (active); in experiment [6], 9.25 µM (inactive). Moreover, the GI50 was 5.4 µM (inactive) in experiment [7]; 11.4 µM (inactive) in experiment [8]; 6.01 µM (inactive) in experiment [9]; 7.16 µM (inactive) in experiment [10]; 1 µM (active) in experiment [11]; 27.8 µM (inactive) in [12]. Also, the GI50 was 0.23 µM (active) in experiment [13]; 6.55 µM (inactive) in [14]; 3.13 µM (inactive) in experiment [15]; 17.1 µM (inactive) in experiment [16]; 0.964 µM (active) in experiment [17]; 4.04 µM (inactive) in experiment [18]. The GI50 is 0.29 µM (active) in experiment [19] and 75 µM (inactive) in experiment [20].

In the case of `CC(C)(CN1CCCCC1)C(=O)/C=C/c1c(Cl)cccc1Cl`, the GI50 was 0.811 µM (active) in [1]; 2.49 µM (inactive) in experiment [2]; 1.49 µM (inactive) in experiment [3]; 1.83 µM (inactive) in experiment [4]; 1.13 µM (inactive) in experiment [5]; 1.05 µM (active) in experiment [6]. Further, the GI50 in experiment [7] was 0.927 µM (active); in experiment [8] it was 1.48 µM (inactive); in experiment [9] it was 0.701 µM (active); in experiment [10], 0.971 µM (active); in experiment [11], 1.79 µM (inactive); in experiment [12], 1.57 µM (inactive). For the same molecule, the GI50 is 0.42 µM (active) in experiment [13]; 0.637 µM (active) in experiment [14]; 1.49 µM (inactive) in experiment [15]; 0.867 µM (active) in experiment [16]; 2.08 µM (inactive) in experiment [17]; 0.863 µM (active) in experiment [18]. In addition, the GI50 is 0.918 µM (active) in experiment [19] and 0.627 µM (active) in experiment [20].
